We go through two compounds from ChEMBL document CHEMBL5725990, “Inhibitors of Bruton's tyrosine kinase” (2017).

For this assay, the target named is Tyrosine-protein kinase BTK (Homo sapiens, UniProt Q06187). Nature of the assay: Btk In Vitro Inhibitory Assay: Human Btk kinase (Genbank accession # NP_000052) was purified from insect cells as a full-length construct containing a N-terminal 6×-His tag. Btk kinase activity was determined using a radiometric filter binding assay. Measurements are performed in a low μL reaction volume 384-well assay plates. BTK enzyme (8 nM final in reaction), inhibitor (at requested doses), and 0.2 mg/mL peptide substrate (Poly-Glu-Tyr, 4:1 ratio) are incubated in a reaction buffer composed of 20 mM Hepes (pH 7.5), 10 mM MgCl2, 1 mM EGTA, 0.02% Brij35, 0.02 mg/ml BSA, 0.1 mM Na3VO4, 2 mM DTT, 1% DMSO for 15 min. followed by addition of 1 μM ATP to start the assay. Kinase reactions are carried out for 120 min. at room temperature. The reaction was stopped by spotting of reaction sample onto P81 cationic exchange paper (Whatman). Unbound phosphate was removed by extensive washing of filters in 0.75% Phosphoric acid.
Sequence of Tyrosine-protein kinase BTK (Q06187 whole entry): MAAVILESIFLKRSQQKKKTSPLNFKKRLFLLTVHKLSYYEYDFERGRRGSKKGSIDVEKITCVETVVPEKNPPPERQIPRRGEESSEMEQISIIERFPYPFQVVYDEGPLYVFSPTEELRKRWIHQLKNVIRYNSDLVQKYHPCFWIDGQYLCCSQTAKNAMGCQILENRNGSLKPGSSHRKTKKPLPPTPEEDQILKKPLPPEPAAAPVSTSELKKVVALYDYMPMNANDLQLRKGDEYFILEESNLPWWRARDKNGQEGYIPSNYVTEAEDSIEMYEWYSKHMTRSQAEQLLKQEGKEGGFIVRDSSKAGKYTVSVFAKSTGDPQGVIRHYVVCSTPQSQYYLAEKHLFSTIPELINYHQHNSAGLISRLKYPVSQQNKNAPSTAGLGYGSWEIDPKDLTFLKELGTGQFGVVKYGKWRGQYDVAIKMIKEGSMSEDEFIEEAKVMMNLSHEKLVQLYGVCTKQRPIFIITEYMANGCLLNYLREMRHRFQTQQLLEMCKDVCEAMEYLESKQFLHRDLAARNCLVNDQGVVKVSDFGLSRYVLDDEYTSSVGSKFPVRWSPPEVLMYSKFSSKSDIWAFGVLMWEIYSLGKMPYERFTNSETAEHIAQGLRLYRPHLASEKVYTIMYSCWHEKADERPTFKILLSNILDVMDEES

As to `NC(=O)c1nnc(N2CCC[C@@H](NC(=O)c3ccc4nccn4c3)C2)nc1Nc1ccc(C(=O)N2CCOCC2)cc1`, the half-maximal inhibitory concentration (IC50) is less than 10 nM.
For the compound `NC(=O)c1ncc(N2CCC[C@@H](N3CCN(c4cccc(Cl)c4)C3=O)C2)nc1Nc1ccc(C2CCN(C3CCCC3)CC2)cc1`, the half-maximal inhibitory concentration (IC50) was less than 10 nM.

By IC50 is commonly meant the concentration at which inhibition is half-maximal.
